Assay results taken from patent US20210300936A1, “PYRAZOLOTRIAZOLOPYRIMIDINE DERIVATIVES AS A2A RECEPTOR ANTAGONIST” (BEIGENE, LTD., priority 2018, published 2021).

What follows are compounds tested against human A2A receptor (A2AR) (Homo sapiens, UniProt P29274) (assay: Luciferase reporter assay (HEK293-A2AR-luc2p/CRE/Hygro cells, 3 nM CGS21680)). Details: 3 nM CGS21680, 5 h incubation.
Format: cell-based
How it was run: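 Antagonist (0.1–10000 nM) and 3 nM CGS21680 were co-added for 5 h to stable HEK293-A2AR-luc2p/CRE cells, 18 h after seeding in 1% FBS medium containing adenosine deaminase. Luminescence was normalized to agonist alone (100%), and IC50 came from the dose–inhibition curve.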

human A2A receptor (A2AR), sequence (P29274 whole entry): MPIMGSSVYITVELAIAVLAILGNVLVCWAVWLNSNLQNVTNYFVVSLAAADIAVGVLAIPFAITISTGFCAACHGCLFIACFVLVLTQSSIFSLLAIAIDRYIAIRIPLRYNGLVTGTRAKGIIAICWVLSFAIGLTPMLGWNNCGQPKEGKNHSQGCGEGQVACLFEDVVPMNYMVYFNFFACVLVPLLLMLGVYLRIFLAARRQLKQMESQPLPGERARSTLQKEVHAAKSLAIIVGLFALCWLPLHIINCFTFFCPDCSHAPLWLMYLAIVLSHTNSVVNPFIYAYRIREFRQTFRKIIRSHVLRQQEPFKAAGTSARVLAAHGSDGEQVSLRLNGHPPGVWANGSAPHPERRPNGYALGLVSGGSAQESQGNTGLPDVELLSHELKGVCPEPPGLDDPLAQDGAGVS

SMILES	IC50 [nM]
COCCOc1ccc(N2CCN(C(=O)C(C)(c3ccccc3C)n3ncc4c3nc(N)n3nc(-c5ccco5)nc43)CC2)cc1 (stereo not drawn) [Compound A103, 2-(5-amino-2-(furan-2-yl)-7H-pyrazolo[4,3-e][1,2,4]triazolo[1,5-c]pyrimidin-7-yl)-1-(4-(4-(2-methoxyethoxy)phenyl)piperazin-1-yl)-2-(o-tolyl)propan-1-one]	1.7
CN(C)C(=O)c1ccc(N2CCN(C(=O)C(C)(c3ccccc3)n3ncc4c3nc(N)n3nc(-c5ccco5)nc43)CC2)cc1 (stereo not drawn) [Compound A104, 4-(4-(2-(5-amino-2-(furan-2-yl)-7H-pyrazolo[4,3-e][1,2,4]triazolo[1,5-c]pyrimidin-7-yl)-2-phenylpropanoyl)piperazin-1-yl)-N,N-dimethylbenzamide]	5.5
COc1ccc(N2CCN(C(=O)C(C)(c3ccccc3)n3ncc4c3nc(N)n3nc(-c5ccco5)nc43)CC2)c(OC)c1 (stereo not drawn) [Compound A105, 2-(5-amino-2-(furan-2-yl)-7H-pyrazolo[4,3-e][1,2,4]triazolo[1,5-c]pyrimidin-7-yl)-1-(4-(2,4-dimethoxyphenyl)piperazin-1-yl)-2-phenylpropan-1-one]	10.3
CC(C(=O)N1CCN(c2ccc(OCCO)cc2)CC1)(c1ccccc1)n1ncc2c1nc(N)n1nc(-c3ccco3)nc21 (stereo not drawn) [Compound A108, 2-(5-amino-2-(furan-2-yl)-7H-pyrazolo[4,3-e][1,2,4]triazolo[1,5-c]pyrimidin-7-yl)-1-(4-(4-(2-hydroxyethoxy)phenyl)piperazin-1-yl)-2-phenylpropan-1-one]	3.5
CN(C)C(=O)C(c1ccccc1)n1ncc2c1nc(N)n1nc(-c3ccco3)nc21 (stereo not drawn) [Compound B1, 2-(5-amino-2-(furan-2-yl)-7H-pyrazolo[4,3-e][1,2,4]triazolo[1,5-c]pyrimidin-7-yl)-N,N-dimethyl-2-phenylacetamide]	15.2
Nc1nc2c(cnn2C(C(=O)N2CCCCC2)c2ccccc2)c2nc(-c3ccco3)nn12 (stereo not drawn) [Compound B2, 2-(5-amino-2-(furan-2-yl)-7H-pyrazolo[4,3-e][1,2,4]triazolo[1,5-c]pyrimidin-7-yl)-2-phenyl-1-(piperidin-1-yl)ethan-1-one]	2.9
Nc1nc2c(cnn2C(C(=O)N2CCc3cc(F)ccc3C2)c2ccccc2)c2nc(-c3ccco3)nn12 (stereo not drawn) [Compound B7, 2-(5-amino-2-(furan-2-yl)-7H-pyrazolo[4,3-e][1,2,4]triazolo[1,5-c]pyrimidin-7-yl)-1-(6-fluoro-3,4-dihydroisoquinolin-2(1H)-yl)-2-phenylethan-1-one]	2
Nc1nc2c(cnn2C(C(=O)N2CCc3cccnc3C2)c2ccccc2)c2nc(-c3ccco3)nn12 (stereo not drawn) [Compound B9, 2-(5-amino-2-(furan-2-yl)-7H-pyrazolo[4,3-e][1,2,4]triazolo[1,5-c]pyrimidin-7-yl)-1-(5,8-dihydro-1,7-naphthyridin-7(6H)-yl)-2-phenylethan-1-one]	3.4
Nc1nc2c(cnn2C(C(=O)N2CCc3cccc(F)c3C2)c2ccccc2)c2nc(-c3ccco3)nn12 (stereo not drawn) [Compound B10, 2-(5-amino-2-(furan-2-yl)-7H-pyrazolo[4,3-e][1,2,4]triazolo[1,5-c]pyrimidin-7-yl)-1-(8-fluoro-3,4-dihydroisoquinolin-2(1H)-yl)-2-phenylethan-1-one]	0.8
Nc1nc2c(cnn2C(C(=O)N2CCc3ccc(F)cc3C2)c2ccccc2)c2nc(-c3ccco3)nn12 (stereo not drawn) [Compound B11, 2-(5-amino-2-(furan-2-yl)-7H-pyrazolo[4,3-e][1,2,4]triazolo[1,5-c]pyrimidin-7-yl)-1-(7-fluoro-3,4-dihydroisoquinolin-2(1H)-yl)-2-phenylethan-1-one]	2.2
Nc1nc2c(cnn2C(C(=O)N2CCc3c(F)cccc3C2)c2ccccc2)c2nc(-c3ccco3)nn12 (stereo not drawn) [Compound B12, 2-(5-amino-2-(furan-2-yl)-7H-pyrazolo[4,3-e][1,2,4]triazolo[1,5-c]pyrimidin-7-yl)-1-(5-fluoro-3,4-dihydroisoquinolin-2(1H)-yl)-2-phenylethan-1-one]	2.5
Nc1nc2c(cnn2C(C(=O)N2CCc3ncccc3C2)c2ccccc2)c2nc(-c3ccco3)nn12 (stereo not drawn) [Compound B13, 2-(5-amino-2-(furan-2-yl)-7H-pyrazolo[4,3-e][1,2,4]triazolo[1,5-c]pyrimidin-7-yl)-1-(7,8-dihydro-1,6-naphthyridin-6(5H)-yl)-2-phenylethan-1-one]	2.8
COCCOc1ccc2c(c1)CN(C(=O)C(c1ccccc1)n1ncc3c1nc(N)n1nc(-c4ccco4)nc31)CC2 (stereo not drawn) [Compound B14, 2-(5-amino-2-(furan-2-yl)-7H-pyrazolo[4,3-e][1,2,4]triazolo[1,5-c]pyrimidin-7-yl)-1-(7-(2-methoxyethoxy)-3,4-dihydroisoquinolin-2(1H)-yl)-2-phenylethan-1-one]	5.7
COCCOc1ccc2c(c1)CCN(C(=O)C(c1ccccc1)n1ncc3c1nc(N)n1nc(-c4ccco4)nc31)C2 (stereo not drawn) [Compound B15, 2-(5-amino-2-(furan-2-yl)-7H-pyrazolo[4,3-e][1,2,4]triazolo[1,5-c]pyrimidin-7-yl)-1-(6-(2-methoxyethoxy)-3,4-dihydroisoquinolin-2(1H)-yl)-2-phenylethan-1-one]	2.2
COCCOc1cccc2c1CN(C(=O)C(c1ccccc1)n1ncc3c1nc(N)n1nc(-c4ccco4)nc31)CC2 (stereo not drawn) [Compound B16, 2-(5-amino-2-(furan-2-yl)-7H-pyrazolo[4,3-e][1,2,4]triazolo[1,5-c]pyrimidin-7-yl)-1-(8-(2-methoxyethoxy)-3,4-dihydroisoquinolin-2(1H)-yl)-2-phenylethan-1-one]	5.6
Cc1ccc2c(c1)CN(C(=O)C(c1ccccc1)n1ncc3c1nc(N)n1nc(-c4ccco4)nc31)CC2 (stereo not drawn) [Compound B17, 2-(5-amino-2-(furan-2-yl)-7H-pyrazolo[4,3-e][1,2,4]triazolo[1,5-c]pyrimidin-7-yl)-1-(7-methyl-3,4-dihydroisoquinolin-2(1H)-yl)-2-phenylethan-1-one]	1.3

More lines, in order of falling IC50, values ahead:

IC50 [nM]	SMILES
112	CC(C(=O)N1CCc2cc(F)ccc2C1)(c1ccccc1)n1ncc2c1nc(N)n1nc(-c3ccco3)nc21 (stereo not drawn) [Compound B19, 2-(5-amino-2-(furan-2-yl)-7H-pyrazolo[4,3-e][1,2,4]triazolo[1,5-c]pyrimidin-7-yl)-1-(6-fluoro-3,4-dihydroisoquinolin-2(1H)-yl)-2-phenylpropan-1-one]
111	CC(C(=O)N1CCc2ccccc2C1)(c1ccccc1)n1ncc2c1nc(N)n1nc(-c3ccco3)nc21 (stereo not drawn) [Compound B18, 2-(5-amino-2-(furan-2-yl)-7H-pyrazolo[4,3-e][1,2,4]triazolo[1,5-c]pyrimidin-7-yl)-1-(3,4-dihydroisoquinolin-2(1H)-yl)-2-phenylpropan-1-one]
20	CN(C)C(=O)C(C)(c1ccccc1)n1ncc2c1nc(N)n1nc(-c3ccco3)nc21 (stereo not drawn) [Compound B20, 2-(5-amino-2-(furan-2-yl)-7H-pyrazolo[4,3-e][1,2,4]triazolo[1,5-c]pyrimidin-7-yl)-N,N-dimethyl-2-phenylpropanamide]
9.2	CC(C(=O)N1CCN(c2ccc(C(=O)N3CCCCC3)cc2)CC1)(c1ccccc1)n1ncc2c1nc(N)n1nc(-c3ccco3)nc21 (stereo not drawn) [Compound A102, 2-(5-amino-2-(furan-2-yl)-7H-pyrazolo[4,3-e][1,2,4]triazolo[1,5-c]pyrimidin-7-yl)-2-phenyl-1-(4-(4-(piperidine-1-carbonyl)phenyl)piperazin-1-yl)propan-1-one]
8.5	COCCOc1ccc(N2CCN(C(=O)C(C)(c3ccccc3)n3ncc4c3nc(N)n3nc(-c5ccco5)nc43)CC2)c(OC)c1 (stereo not drawn) [Compound A106, 2-(5-amino-2-(furan-2-yl)-7H-pyrazolo[4,3-e][1,2,4]triazolo[1,5-c]pyrimidin-7-yl)-1-(4-(2-methoxy-4-(2-methoxyethoxy)phenyl)piperazin-1-yl)-2-phenylpropan-1-one]
7	Nc1nc2c(cnn2C(C(=O)N2CCc3ccc(OC(F)(F)F)cc3C2)c2ccccc2)c2nc(-c3ccco3)nn12 (stereo not drawn) [Compound B6, 2-(5-amino-2-(furan-2-yl)-7H-pyrazolo[4,3-e][1,2,4]triazolo[1,5-c]pyrimidin-7-yl)-2-phenyl-1-(7-(trifluoromethoxy)-3,4-dihydroisoquinolin-2(1H)-yl)ethan-1-one]
4.8	CNCCOc1ccc(N2CCN(C(=O)C(C)(c3ccccc3)n3ncc4c3nc(N)n3nc(-c5ccco5)nc43)CC2)cc1 (stereo not drawn) [Compound A107, 2-(5-amino-2-(furan-2-yl)-7H-pyrazolo[4,3-e][1,2,4]triazolo[1,5-c]pyrimidin-7-yl)-1-(4-(4-(2-(methylamino)ethoxy)phenyl)piperazin-1-yl)-2-phenylpropan-1-one]
4	Nc1nc2c(cnn2C(C(=O)N2CCc3ccncc3C2)c2ccccc2)c2nc(-c3ccco3)nn12 (stereo not drawn) [Compound B8, 2-(5-amino-2-(furan-2-yl)-7H-pyrazolo[4,3-e][1,2,4]triazolo[1,5-c]pyrimidin-7-yl)-1-(3,4-dihydro-2,7-naphthyridin-2(1H)-yl)-2-phenylethan-1-one]
3	Nc1nc2c(cnn2C(C(=O)N2CCc3ccc(Cl)cc3C2)c2ccccc2)c2nc(-c3ccco3)nn12 (stereo not drawn) [Compound B5, 2-(5-amino-2-(furan-2-yl)-7H-pyrazolo[4,3-e][1,2,4]triazolo[1,5-c]pyrimidin-7-yl)-1-(7-chloro-3,4-dihydroisoquinolin-2(1H)-yl)-2-phenylethan-1-one]
2.9	Nc1nc2c(cnn2C(C(=O)N2CCCc3ccccc32)c2ccccc2)c2nc(-c3ccco3)nn12 (stereo not drawn) [Compound B4, 2-(5-amino-2-(furan-2-yl)-7H-pyrazolo[4,3-e][1,2,4]triazolo[1,5-c]pyrimidin-7-yl)-1-(3,4-dihydroquinolin-1(2H)-yl)-2-phenylethan-1-one]
1.9	Nc1nc2c(cnn2C(C(=O)N2CCc3ccccc3C2)c2ccccc2)c2nc(-c3ccco3)nn12 (stereo not drawn) [Compound B3, 2-(5-amino-2-(furan-2-yl)-7H-pyrazolo[4,3-e][1,2,4]triazolo[1,5-c]pyrimidin-7-yl)-1-(3,4-dihydroisoquinolin-2(1H)-yl)-2-phenylethan-1-one]
